Results published in article PMC7202735 (Journal of medicinal chemistry, 2018).

How the values were obtained:
CB1 = conditions: cited from earlier work
MG63 cells = test: Wound healing scratch assay, MG63; assay type: cell-based, human; conditions: MG63 cell line, Figure 2d
endothelial HUVEC cells = test: Angiogenesis assay: endothelial tube formation on matrigel; assay type: cell-based, human; conditions: 0.5 μM and 1 μM, 5 hours
143B cells = test: Wound healing scratch assay, 143B; assay type: cell-based, human; conditions: 143B cell line, with rimonabant, Supplementary Figure S4
143B = test: Cell cycle analysis by propidium iodide staining, 143B; assay type: cell-based, human; conditions: treated 24 hours
[1] = molecular target: T1, Fatty acid amide hydrolase (FAAH) (Sus scrofa, UniProt Q9TUI8); conditions: cited from earlier work
T1 sequence (Q9TUI8 1-579): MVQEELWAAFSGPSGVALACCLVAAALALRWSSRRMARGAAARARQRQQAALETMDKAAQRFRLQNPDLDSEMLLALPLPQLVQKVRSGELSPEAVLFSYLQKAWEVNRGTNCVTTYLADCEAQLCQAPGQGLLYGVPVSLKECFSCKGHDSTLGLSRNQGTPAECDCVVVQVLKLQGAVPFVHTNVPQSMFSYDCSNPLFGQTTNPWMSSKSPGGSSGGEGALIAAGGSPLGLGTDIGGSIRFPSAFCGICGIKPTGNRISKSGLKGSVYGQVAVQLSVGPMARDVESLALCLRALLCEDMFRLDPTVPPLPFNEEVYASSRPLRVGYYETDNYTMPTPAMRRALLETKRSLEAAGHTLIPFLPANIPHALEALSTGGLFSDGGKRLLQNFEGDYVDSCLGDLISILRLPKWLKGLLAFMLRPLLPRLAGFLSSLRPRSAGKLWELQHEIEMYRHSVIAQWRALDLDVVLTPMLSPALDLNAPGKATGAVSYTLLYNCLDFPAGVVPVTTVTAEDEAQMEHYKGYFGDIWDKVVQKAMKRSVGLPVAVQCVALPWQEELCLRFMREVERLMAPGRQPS

HOS, 143B and MG63 cells = assay type: cell-based, human; conditions: for induction of apoptosis as compared to no treatment control: all three cell lines, 12.5 μM; for apoptotic activity as compared to control: antagonist alone, supplementary tables 2–4

For CCCCCC=CCC=CCC=CCC=CCCCC(=O)NC(C)CO (single isomer, unassigned) [R isomer], the “CB1 binding, fold higher as compared to AEA” value (CB1) is given as 4 fold.
In the case of CCCCCC=CCC=CCC=CCC=CCCCC(=O)NC(C)CO (single isomer, unassigned) [S isomers], the “CB1 binding, fold lower as compared to AEA” value (CB1) is listed as 2 fold.
With CC/C=C\C/C=C\C/C=C\CC1OC1C/C=C\C/C=C\CCC(=O)NC1CC1 (stereo not drawn) [10,11-EDP-CA, (4Z,7Z)-N-cyclopropyl-9-(3-((2Z,5Z,8Z)-undeca-2,5,8-trien-1-yl)oxiran-2-yl)nona-4,7-dienamide] the “restriction in wound healing as compared to the control” value (“restriction … compared to the control” below) (MG63 cells) was “comparable to 10,11-EDP-EA” and the “tube formation as compared to the vehicle control” value (endothelial HUVEC cells) was “Restriction of tube formation”.
For CC/C=C\C/C=C\C/C=C\CC1OC1C/C=C\C/C=C\CCC(=O)NCCO (stereo not drawn) [10,11-EDP-EA, (4Z,7Z)-N-(2-hydroxyethyl)-9-(3-((2Z,5Z,8Z)-undeca-2,5,8-trien-1-yl)oxiran-2-yl)nona-4,7-dienamide], the “reduction of cell migration in presence of CB1 receptor antagonist” value (143B cells) was “completely abolished” and the “tube formation as compared to the vehicle control” value (endothelial HUVEC cells) was “Restriction of tube formation”.
With CC/C=C\C/C=C\C/C=C\CC1OC1C/C=C\C/C=C\CCC(=O)NC(C)CO (stereo not drawn) [10,11-EDP-IA, (4Z,7Z)-N-(1-hydroxypropan-2-yl)-9-(3-((2Z,5Z,8Z)-undeca-2,5,8-trien-1-yl)oxiran-2-yl)nona-4,7-dienamide] the “restriction … compared to the control” value (MG63 cells) was “slightly poorer than the control” and the “tube formation as compared to the vehicle control” value (endothelial HUVEC cells) was “Restriction of tube formation”.
For CC/C=C\C/C=C\C/C=C\CC1OC1C/C=C\C/C=C\CCC(=O)NCCCO (stereo not drawn) [10,11-EDP-NA, (4Z,7Z)-N-(3-hydroxypropyl)-9-(3-((2Z,5Z,8Z)-undeca-2,5,8-trien-1-yl)oxiran-2-yl)nona-4,7-dienamide], the “restriction … compared to the control” value (MG63 cells) was “slightly poorer than the control”, the “percentage of cells in S” value (143B) was “slight suppression” and the “tube formation as compared to the vehicle control” value (endothelial HUVEC cells) was “Restriction of tube formation”.
For CCC1OC1C/C=C\C/C=C\C/C=C\C/C=C\C/C=C\CCC(=O)NCCO (stereo not drawn) [19,20-EDP-EA], the rate of hydrolysis [1] is listed as 150 pmol min−1 mg protein−1.
With CCCCC/C=C\C/C=C\C/C=C\C/C=C\CCCC(=O)O [AA, arachidonic acid] the “induction of apoptosis as compared to no treatment control” value (HOS, 143B and MG63 cells) was “no induction of apoptosis”.
In the case of CCCCC/C=C\C/C=C\C/C=C\C/C=C\CCCC(=O)NCCO [AEA, arachidonoyl ethanolamide], the “induction of apoptosis as compared to no treatment control” value (HOS, 143B and MG63 cells) is reported as “no induction of apoptosis”.
For COc1ccc(C(=O)c2c(C)n(CCN3CCOCC3)c3cc(I)ccc23)cc1 [AM 630], the “apoptotic activity as compared to control” value (HOS, 143B and MG63 cells) was “very limited apoptotic activity”.
In the case of CC/C=C\C/C=C\C/C=C\C/C=C\C/C=C\C/C=C\CCC(=O)O [DHA, docosahexaenoic acid], the “induction of apoptosis as compared to no treatment control” value (HOS, 143B and MG63 cells) is reported as “no induction of apoptosis”.
With CC/C=C\C/C=C\C/C=C\C/C=C\C/C=C\C/C=C\CCC(=O)NCCO [DHEA, docosahexaenoylethanolamide] the “induction of apoptosis as compared to no treatment control” value (HOS, 143B and MG63 cells) was “no induction of apoptosis”.
With Cc1c(C(=O)NN2CCCCC2)nn(-c2ccc(Cl)cc2Cl)c1-c1ccc(Cl)cc1 [rimonabant] the “apoptotic activity as compared to control” value (HOS, 143B and MG63 cells) was “very limited apoptotic activity”.
